What was measured:
LCMV-CL13 [1] = tested on: LCMV-CL13; parameters: species or system mice (C57BL/6); details: mouse, in vivo
LCMV-CL13 [2] = tested on: LCMV-CL13; parameters: species or system mice (C57BL/6); details: mouse, in vivo; remark: listed apart in the source
P14+ CD8 T cells = assay type: cell-based, mice

Row | Structure (SMILES) | INFγ, TNFα, and IL-2 production by CD8+ T cells stimulated with LCMV peptides GP276, GP33 and NP396 (LCMV-CL13 [1]) | number of virus-specific CD8+ T cells (LCMV-CL13 [2]) | inhibition of TNF-α and IL-2 production (P14+ CD8 T cells) | production of IFN-γ, TNF-α and IL-2 (all three cytokines) (P14+ CD8 T cells) | effect on cytokine production (P14+ CD8 T cells; EP2/4 DKO P14+ CD8 T cells, 40 μM PGE2)
1 | CCc1nc2c(C)nc(C)cc2n1-c1ccc(CCNC(=O)NS(=O)(=O)c2ccc(C)cc2)cc1 [CJ-23423] | increased | increased | – | – | –
2 | CC(C)Oc1ccc2c(=O)c3cc(C(=O)O)ccc3oc2c1 [AH6809] | increased | increased | – | – | –
3 | COc1ccc2cc(OCC3(C(=O)O)CN(C(=O)c4ccc(F)cc4)C3)ccc2c1 [PF-04418948] | increased | increased | – | – | –
4 | CCCCc1nn(-c2ccccc2C(F)(F)F)c(=O)n1Cc1ccc(-c2ccccc2S(=O)(=O)NC(=O)c2sccc2C)cc1 [L161,982] | increased | increased | – | – | –
5 | CCCCC[C@H](O)/C=C/[C@H]1[C@H](O)CC(=O)[C@@H]1C/C=C\CCCC(=O)O [PGE2] | – | – | 75-80% | suppressed | very little effect

— patent US20150004175A1, “Compositions and Methods for Reducing CTL Exhaustion” (priority 2011, published 2015)
